Source: article PMC7355801, “Synthesis, Cyclooxygenases Inhibition Activities and Interactions with BSA of N-substituted 1H-pyrrolo[3,4-c]pyridine-1,3(2H)-diones Derivatives” (Molecules, 2020)

What was measured:
[1] = target: T1, bovine serum albumin (BSA) (Bos taurus, UniProt P02769); experiment: intrinsic fluorescence quenching, excitation […] nm; type: binding; conditions: 298 K, pH 7.4, no site marker
T1 construct: gene ALB; mature serum albumin, 583 residues, monomer

COX-1 = target: T2, COX-1 (Ovis aries, UniProt P05979); experiment: colorimetric COX peroxidase inhibition kit, […] nm; type: biochemical; conditions: read-out: Cyclooxygenase Inhibition Assay IC50 [μM] / COX-1
T2 construct: gene PTGS1; homodimer
T2 sequence (P05979 25-600): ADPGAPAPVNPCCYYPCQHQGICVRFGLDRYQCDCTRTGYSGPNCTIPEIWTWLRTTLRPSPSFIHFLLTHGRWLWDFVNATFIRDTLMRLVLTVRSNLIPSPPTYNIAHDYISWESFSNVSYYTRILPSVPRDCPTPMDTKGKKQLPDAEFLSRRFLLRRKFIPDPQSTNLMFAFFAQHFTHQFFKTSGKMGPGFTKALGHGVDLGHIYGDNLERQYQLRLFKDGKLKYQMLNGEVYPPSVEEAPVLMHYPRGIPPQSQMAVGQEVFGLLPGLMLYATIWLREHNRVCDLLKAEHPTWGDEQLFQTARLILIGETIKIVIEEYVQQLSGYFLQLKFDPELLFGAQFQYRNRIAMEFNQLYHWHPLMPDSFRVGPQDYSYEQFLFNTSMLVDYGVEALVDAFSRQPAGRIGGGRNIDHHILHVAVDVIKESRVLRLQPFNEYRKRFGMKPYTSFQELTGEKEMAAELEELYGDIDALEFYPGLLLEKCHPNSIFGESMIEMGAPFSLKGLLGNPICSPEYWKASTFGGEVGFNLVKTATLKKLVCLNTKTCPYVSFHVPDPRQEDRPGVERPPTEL

T1 sequence (P02769 25-607): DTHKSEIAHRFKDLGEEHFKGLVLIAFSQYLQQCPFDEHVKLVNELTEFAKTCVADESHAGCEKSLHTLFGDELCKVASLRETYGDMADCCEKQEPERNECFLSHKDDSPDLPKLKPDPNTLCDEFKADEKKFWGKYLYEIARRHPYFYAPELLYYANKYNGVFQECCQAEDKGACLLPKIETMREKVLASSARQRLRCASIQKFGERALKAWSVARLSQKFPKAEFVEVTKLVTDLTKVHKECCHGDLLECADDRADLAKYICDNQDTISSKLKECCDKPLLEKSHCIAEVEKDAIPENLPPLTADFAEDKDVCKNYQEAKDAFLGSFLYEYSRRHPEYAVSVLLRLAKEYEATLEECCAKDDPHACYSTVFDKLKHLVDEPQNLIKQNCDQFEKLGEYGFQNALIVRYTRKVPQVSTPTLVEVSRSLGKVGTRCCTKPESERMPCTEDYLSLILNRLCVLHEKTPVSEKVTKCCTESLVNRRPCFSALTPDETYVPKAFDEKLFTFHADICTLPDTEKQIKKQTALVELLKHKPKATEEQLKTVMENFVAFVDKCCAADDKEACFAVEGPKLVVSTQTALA

| Double log / Kb × 10^3 [dm^3.mol^-1] [1] | IC50 (COX-1) [µM] | SMILES |
| --- | --- | --- |
| 8.32 × 10^3 dm^3·mol^−1 | 93.2 | Cc1cc2c(c(=O)n1C)C(=O)N(CN1CCN(c3cccc(C(F)(F)F)c3)CC1)C2=O [B] |
| 11.51 × 10^3 dm^3·mol^−1 | 95.8 | COc1ccccc1N1CCN(CN2C(=O)c3cc(C)n(C)c(=O)c3C2=O)CC1 [C] |
| 6.24 × 10^3 dm^3·mol^−1 | 99.2 | COc1nc(C)cc2c1C(=O)N(CCN1CCOCC1)C2=O [E] |
| 4.82 × 10^3 dm^3·mol^−1 | 76.6 | COc1nc(C)cc2c1C(=O)N(CN1CCCC1)C2=O [D, 4-Methoxy–N-[1-(N-pyrrolidine)-methyl]-6-methyl-1H-pyrrolo[3.4-c]pyridine-1,3(2H)-dione] |
| 5.37 × 10^3 dm^3·mol^−1 | 81.6 | Cc1cc2c(c(=O)n1C)C(=O)N(CN1CCN(c3ccccc3)CC1)C2=O [A, 5,6-dimethyl-4-oxo-2-[(4-phenyl-1-piperazinyl)methyl]-1H-pyrrolo[3.4-c]pyridine-1,3(2H)-dione] |
